Key:
[1] = target: T1, Ras farnesyl transferase (Homo sapiens, UniProt P49354+P49356); test: Ras farnesyl transferase enzyme inhibition, K-Ras substrate (H-Ras fused with polybasic lysine domain of K-Ras); format: biochemical; conditions: K-Ras substrate (fused protein of H-Ras with polybasic lysine domain of K-Ras); recombinant farnesyl transferase
T1 construct: made in house

[2] = target: T1, Ras farnesyl transferase; test: Ras farnesyl transferase enzyme inhibition, H-Ras substrate; format: biochemical; conditions: H-Ras substrate protein; recombinant farnesyl transferase; 30 minutes at 37° C.
[3] = target: T2, Ras farnesyl transferase (Rattus norvegicus, UniProt Q02293+Q04631); test: In vivo (intracellular) Ras farnesylation inhibition in Rat2 cell line expressing C-Harvey-Ras; format: cell-based; conditions: Rat2 cells expressing C-Harvey-Ras; concentration inhibiting 50% of farnesyl binding; read-out: H-Ras CIC50
T2 construct: endogenous in cells; host or cells: Rat2 fibroblasts transformed with C-Harvey-Ras or with the H-Ras/K-Ras polybasic-domain fusion
How it was run: (§1)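 Transformed Rat2 fibroblasts treated with compound (1% DMSO) for 4 h, then labelled with [^35S]methionine 150 μCi/ml for 20 h. Ras immunoprecipitated with Y13-259 and resolved on 13.5% SDS-PAGE autoradiography; CIC50 is concentration inhibiting 50% of farnesylated Ras band.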

[4] = target: T2, Ras farnesyl transferase; test: In vivo (intracellular) Ras farnesylation inhibition in Rat2 cell line transformed with H-Ras fused with polybasic lysine domain of K-Ras; format: cell-based; conditions: Rat2 cells transformed with H-Ras/K-Ras polybasic domain fused protein; concentration inhibiting 50% of farnesyl binding; read-out: K-Ras CIC50
How it was run: as §1

Row | IC50 [1] | IC50 [2] | IC50 [3] | IC50 [4] | Compound
1 | < 7.5 nM | < 4.15 nM | > 50 nM | > 10000 nM | O=[N+]([O-])c1cn(Cc2cncn2CCc2ccc(F)cc2)cc1-c1cccc2ccccc12 [Example 42, 1-[1-(4-fluorophenethyl)-1H-imidazol-5-ylmethyl]-4-(naphthalen-1-yl)-3-nitro-1H-pyrrole]
2 | < 13 nM | < 3 nM | > 50 nM | > 10000 nM | O=[N+]([O-])c1cn(Cc2cncn2CCc2cccc(Br)c2)cc1-c1cccc2ccccc12 [Example 43, 1-[1-(3-bromophenethyl)-1H-imidazol-5-ylmethyl]-4-(naphthalen-1-yl)-3-nitro-1H-pyrrole]
3 | < 15 nM | < 11 nM | < 25 nM | > 10000 nM | COc1ccc(CCn2cncc2Cn2cc(-c3cccc4ccccc34)c([N+](=O)[O-])c2)cc1 [Example 44, 1-[1-(4-methoxyphenethyl)-1H-imidazol-5-ylmethyl]-4-(naphthalen-1-yl)-3-nitro-1H-pyrrole]
4 | < 16 nM | < 16 nM | < 25 nM | > 10000 nM | COc1cccc(CCn2cncc2Cn2cc(-c3cccc4ccccc34)c([N+](=O)[O-])c2)c1 [Example 45, 1-[1-(3-methoxyphenethyl)-1H-imidazol-5-ylmethyl]-4-(naphthalen-1-yl)-3-nitro-1H-pyrrole]
5 | < 6 nM | < 7 nM | > 50 nM | > 10000 nM | O=[N+]([O-])c1cn(Cc2cncn2CCc2cccc3ccccc23)cc1-c1cccc2ccccc12 [Example 46, 1-[1-(naphthalen-1-ylethyl)-1H-imidazol-5-ylmethyl]-4-(naphthalen-1-yl)-3-nitro-1H-pyrrole]
6 | < 29 nM | < 15 nM | < 12.5 nM | > 10000 nM | CCOCCCn1cncc1Cn1cc(-c2cccc3ccccc23)c([N+](=O)[O-])c1 [Example 47, 1-[1-(3-ethoxypropyl)-1H-imidazol-5-ylmethyl]-4-(naphthalen-1-yl)-3-nitro-1H-pyrrole]
7 | > 30 nM | > 30 nM | > 50 nM | > 10000 nM | Cn1cncc1Cn1cc(-c2cccc3ccccc23)c([N+](=O)[O-])c1 [Example 48, 1-[1-(methyl)-1H-imidazol-5-ylmethyl]-4-(naphthalen-1-yl)-3-nitro-1H-pyrrole]
8 | > 30 nM | < 30 nM | > 50 nM | > 10000 nM | O=[N+]([O-])c1cn(Cc2cncn2Cc2ccc3ccccc3c2)cc1-c1cccc2ccccc12 [Example 49, 1-[1-(naphthalen-2-ylmethyl)-1H-imidazol-5-ylmethyl]-4-(naphthalen-1-yl)-3-nitro-1H-pyrrole]
9 | > 30 nM | > 30 nM | > 50 nM | > 10000 nM | Nc1cn(Cc2cncn2Cc2ccc(Cl)cc2)cc1-c1cccc2ccccc12 [Example 50, 3-amino-1-[1-(4-chlorobenzyl)-1H-imidazol-5-ylmethyl]-4-(naphthalen-1-yl)-1H-pyrrole]
10 | < 30 nM | < 10 nM | < 10 nM | > 10000 nM | Cc1ncn(Cc2ccc3c(c2)OCO3)c1Cn1cc(C(=O)N2CCN(C)CC2)c(-c2cc(Br)cc3ccccc23)c1 [Example 51, 4-(3-bromonaphthalen-1-yl)-1-[4-methyl-1-(3,4-methylenedioxybenzyl)-1H-imidazol-5-ylmethyl]-3-(4-methylpiperazin-1-yl)carbonyl-1H-pyrrole]
11 | < 30 nM | < 10 nM | < 10 nM | > 10000 nM | Cc1ncn(Cc2ccc3c(c2)OCO3)c1Cn1cc(C(=O)N2CCN(C)CC2)c(-c2cc(Cl)cc3ccccc23)c1 [Example 52, 4-(3-chloronaphthalen-1-yl)-1-[4-methyl-1-(3,4-methylenedioxybenzyl)-1H-imidazol-5-ylmethyl]-3-(4-methylpiperazin-1-yl)carbonyl-1H-pyrrole]
12 | < 30 nM | < 10 nM | < 10 nM | > 10000 nM | Cc1ncn(Cc2ccc3ccccc3c2)c1Cn1cc(C(=O)N2CCN(C)CC2)c(-c2cc(Br)cc3ccccc23)c1 [Example 53, 4-(3-bromonaphthalen-1-yl)-1-[4-methyl-1-(naphthalen-2-yl)methyl-1H-imidazol-5-ylmethyl]-3-(4-methylpiperazin-1-yl)carbonyl-1H-pyrrole]
13 | < 30 nM | < 10 nM | < 10 nM | > 10000 nM | Cc1ncn(Cc2ccc3ccccc3c2)c1Cn1cc(C(=O)N2CCN(C)CC2)c(-c2cc(Cl)cc3ccccc23)c1 [Example 54, 4-(3-chloronaphthalen-1-yl)-1-[4-methyl-1-(naphthalen-2-yl)methyl-1H-imidazol-5-ylmethyl]-3-(4-methylpiperazin-1-yl)carbonyl-1H-pyrrole]
14 | < 30 nM | < 10 nM | < 10 nM | > 10000 nM | Cc1ncn(Cc2ccc3ccccc3c2)c1Cn1cc(C(=O)N2CCN(C)CC2)c(-c2cccc3ccccc23)c1 [Example 55, 1-[4-methyl-1-(naphthalen-2-yl)methyl-1H-imidazol-5-ylmethyl]-3-(4-methylpiperazin-1-yl)carbonyl-4-(naphthalen-1-yl)-1H-pyrrole]
